Active and inactive are the calls of the source. The calls are words filed in the database; no cut-off is given here. A value given as a limit tells only on which side of the number the result lay.

What is called IC50 is the concentration at which inhibition is half-maximal. Read a high IC50 as weaker potency in that assay.

Data set [1] has as its system HeLa. The data set can be described thus: Antiproliferative activity against human HeLa cells incubated for 48 hrs by WST8 assay. In kind it is functional, cell-based.
Data set [2] has as its system HeLa. In words: Induction of cell cycle arrest in human HeLa cells assessed as mono-polar spindles formation surrounded by ring shaped chromosomes in mitotic cells at 3 uM incubated for 6 hrs by Hoechst 33342 staining based confocal microscopic method. In kind it is functional.
Data set [3] concerns HeLa. In words: Induction of cell cycle arrest in S phase synchronized human HeLa cells stably expressing GFP-HistoneH1 fusion protein assessed as formation of ring shaped chromosomes at 5 uM incubated for 4 hrs by inverted fluorescence microscopic method. The format is functional, cell-based.
The subject of data set [4] is HeLa. The data set can be described thus: Induction of cell cycle arrest in human HeLa cells assessed as mono-polar spindles formation surrounded by ring shaped chromosomes in mitotic cells at 5 uM incubated for 6 hrs by Hoechst 33342 staining based confocal microscopic method. In kind it is functional.
In data set [5] the test system is HeLa. The data set can be described thus: Induction of cell cycle arrest in S phase synchronized human HeLa cells stably expressing GFP-HistoneH1 fusion protein assessed as increase in total mitotic cells at 1 uM incubated for 6 hrs by inverted fluorescence microscopic method relative to control. In kind it is functional.
Data set [6] relates to HeLa. The data set can be described thus: Induction of cell cycle arrest in S phase synchronized human HeLa cells stably expressing GFP-HistoneH1 fusion protein assessed as increase in total mitotic cells at 10 uM incubated for 6 hrs by inverted fluorescence microscopic method relative to control. The format is functional.
The subject of data set [7] is HeLa. The data set can be described thus: Induction of cell cycle arrest in S phase synchronized human HeLa cells stably expressing GFP-HistoneH1 fusion protein assessed as chromosomes alignment at 5 uM incubated for 3 hrs by inverted fluorescence microscopic method. The format is functional, cell-based.
In data set [8] the test system is HeLa. In words: Induction of cell cycle arrest in S phase synchronized human HeLa cells stably expressing GFP-HistoneH1 fusion protein assessed as chromosomes division at 5 uM incubated for 3 hrs by inverted fluorescence microscopic method. The format is functional, cell-based.
Data set [9] has as its target T1, Kinesin-like protein KIF11 (Homo sapiens) (UniProt P52732).
T1 sequence (whole entry): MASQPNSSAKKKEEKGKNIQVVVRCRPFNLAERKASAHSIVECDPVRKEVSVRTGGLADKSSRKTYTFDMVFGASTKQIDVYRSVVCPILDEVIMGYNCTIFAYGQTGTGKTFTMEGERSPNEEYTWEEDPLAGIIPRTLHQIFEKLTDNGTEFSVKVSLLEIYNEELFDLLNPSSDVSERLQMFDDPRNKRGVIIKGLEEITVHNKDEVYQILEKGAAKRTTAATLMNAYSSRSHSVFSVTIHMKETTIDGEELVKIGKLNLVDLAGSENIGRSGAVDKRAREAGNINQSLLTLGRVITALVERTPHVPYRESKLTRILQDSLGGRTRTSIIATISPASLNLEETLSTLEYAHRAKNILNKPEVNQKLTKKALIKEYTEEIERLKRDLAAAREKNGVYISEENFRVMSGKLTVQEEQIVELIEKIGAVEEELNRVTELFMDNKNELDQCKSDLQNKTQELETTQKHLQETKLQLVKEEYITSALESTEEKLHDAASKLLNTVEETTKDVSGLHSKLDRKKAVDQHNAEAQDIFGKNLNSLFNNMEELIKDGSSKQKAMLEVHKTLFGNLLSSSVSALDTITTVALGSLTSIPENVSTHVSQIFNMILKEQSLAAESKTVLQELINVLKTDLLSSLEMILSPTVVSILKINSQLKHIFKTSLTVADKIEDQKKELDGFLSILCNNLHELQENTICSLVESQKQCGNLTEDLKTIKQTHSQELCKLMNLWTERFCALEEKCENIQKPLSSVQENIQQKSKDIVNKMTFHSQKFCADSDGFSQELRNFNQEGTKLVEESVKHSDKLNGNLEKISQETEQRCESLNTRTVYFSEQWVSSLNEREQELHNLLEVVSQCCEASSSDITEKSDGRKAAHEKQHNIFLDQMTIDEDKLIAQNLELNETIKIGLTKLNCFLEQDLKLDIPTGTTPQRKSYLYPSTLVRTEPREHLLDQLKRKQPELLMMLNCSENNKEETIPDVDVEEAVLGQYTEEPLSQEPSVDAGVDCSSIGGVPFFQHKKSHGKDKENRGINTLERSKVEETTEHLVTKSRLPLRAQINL
The data set can be described thus: Inhibition of human Eg5 motor domain (1 to 368 residues) expressed in Escherichia coli assessed as reduction in microtubule-stimulated ATPase activity at 100 uM incubated with ATP for 6 mins by malachite green method.

Data set [10] relates to HeLa. The data set can be described thus: Induction of cell cycle arrest in S phase synchronized human HeLa cells stably expressing GFP-HistoneH1 fusion protein assessed as increase in formation of ring shaped chromosomes incubated for 4 hrs by inverted fluorescence microscopic method. The format is functional, cell-based.
A further data set concerns Huh-7. The data set can be described thus: Antiproliferative activity against human HuH7 cells incubated for 48 hrs by WST8 assay. In kind it is functional, cell-based. As to conditions: Huh-7, 48 h. Background: Tetrazolium assays rely on reduction of a dye to a coloured formazan, in cell work by metabolically active cells.
Another data set deals with HCT-116. In words: Antiproliferative activity against human HCT116 cells incubated for 48 hrs by WST8 assay. The format is functional, cell-based. The conditions noted are these: HCT-116, 48 h.
Data set [11] relates to HeLa. The data set can be described thus: Cytotoxicity against human HeLa cells assessed as cell death at 5 to […] incubated for 48 hrs by LDH assay relative to control. In kind it is cell-based.
A further data set has as its system A549. The data set can be described thus: Antiproliferative activity against human A549 cells incubated for 48 hrs by WST8 assay. In kind it is functional, cell-based. The conditions noted are these: A549, 48 h.
In data set [12] the test system is HeLa. In words: Induction of cell cycle arrest in S phase synchronized human HeLa cells stably expressing GFP-HistoneH1 fusion protein assessed as increase in total mitotic cells at 5 uM incubated for 6 hrs by inverted fluorescence microscopic method relative to control. The format is functional.

In the data set with HeLa [1], `CCCC(=O)c1c(OC)cc(=O)oc1C` came in with an IC50 greater than 100000 nM.

In the data set on HeLa [1], `COc1cc(=O)oc(C)c1C(=O)CC(C)O` (centres undefined) yielded an IC50 of 22300 nM.

As for `N[C@@H](CSC(c1ccccc1)(c1ccccc1)c1ccccc1)C(=O)O`, in the data set with HeLa [2], the result was Active.

With `C/C=C/Cc1c(O)cc(=O)oc1C`, in the data set with HeLa [1], the IC50 was greater than 100000 nM.

As for `C/C=C/C(=O)c1c(OC)cc(=O)oc1C`, the result with HeLa [3] and in the data set on HeLa [4] was Active. Further, the Activity with HeLa [5] is 2%; with HeLa [6], 14%; with HeLa [10], “Dose-dependent effect”; in the data set on HeLa [11], 0 to 6%; in the data set on HeLa [12] it was 7%. For the same compound, the IC50 amounted to 9300 nM in the data set with HeLa [1], 8600 nM in the data set on Huh-7, 2600 nM with HCT-116 and 12900 nM in the data set on A549. In addition, the outcome (with HeLa [7]; in the data set on HeLa [8]; in [9]) was inactive.

Take `COc1cccc2c1C(=O)c1c(O)c3c(c(O)c1C2=O)C[C@@](O)(C(=O)CO)C[C@@H]3O[C@H]1C[C@H](N)[C@H](O)[C@H](C)O1` [DOXORUBICIN]: the IC50 in the data set on HeLa [1] is 400 nM; in the data set with Huh-7 it was 220 nM; in the data set with HCT-116, 250 nM; in the data set with A549, 240 nM.

In turn, `C#CCOCC/C=C/C(=O)c1c(OC)cc(=O)oc1C` registered an IC50 in the data set on HeLa [1] of 2300 nM. The result in the data set on HeLa [10] was Active.

The values above are taken from ChEMBL document CHEMBL4406896, “Pyrenocine A induces monopolar spindle formation and suppresses proliferation of cancer cells” (Bioorg Med Chem, 2019).
